Measured values from ChEMBL document CHEMBL1201862, “PubChem BioAssay data set” (2004).
Activity calls are given as the source filed them.

Experiments:
[1] = HepG2 cell cytotoxicity, dose response, cytotoxicity control, cherry-picked samples (AID 1159577); format: functional, cell-based
[2] = P. falciparum Dd2 growth inhibitors, dose response, SYBR Green, cherry-picked samples (AID 1159567); format: functional, cell-based
[3] = inhibitors of clade B AD8 Env fusion, dose response, cell-based, cherry-pick (AID 652062); format: functional;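 note: luciferase signal from cell-cell fusion driven by HIV-1 clade B AD8 Env; potency is for inhibitors of fusion seen as a drop in luminescence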
[4] = ZM109 Env clade C HIV-1 fusion inhibitors, dose response, HeLa effector, CEM target cells, luciferase, cherry-pick (AID 652058); format: functional, cell-based
[5] = inhibitors of HIV Env-driven cell fusion, dose response, cherry-pick (AID 652057); format: functional, cell-based
[6] = biological target: Bifunctional protein GlmU (Mycobacterium tuberculosis, UniProt P9WMN3); assay: Inhibitors of Mycobacterial Glucosamine-1-phosphate acetyl transferase (GlmU). Secondary screen.; design: species or system Mycobacterium tuberculosis H37Rv
Leucine aminopeptidase = biological target: T1, Leucine aminopeptidase (Plasmodium falciparum 3D7, UniProt Q8IL11); assay: P. falciparum M17LAP inhibitors, primary screen, biochemical, fluorogenic H-Leu-NHMec substrate, 1536-well (AID 1619); format: functional
T1 sequence (Q8IL11 whole entry): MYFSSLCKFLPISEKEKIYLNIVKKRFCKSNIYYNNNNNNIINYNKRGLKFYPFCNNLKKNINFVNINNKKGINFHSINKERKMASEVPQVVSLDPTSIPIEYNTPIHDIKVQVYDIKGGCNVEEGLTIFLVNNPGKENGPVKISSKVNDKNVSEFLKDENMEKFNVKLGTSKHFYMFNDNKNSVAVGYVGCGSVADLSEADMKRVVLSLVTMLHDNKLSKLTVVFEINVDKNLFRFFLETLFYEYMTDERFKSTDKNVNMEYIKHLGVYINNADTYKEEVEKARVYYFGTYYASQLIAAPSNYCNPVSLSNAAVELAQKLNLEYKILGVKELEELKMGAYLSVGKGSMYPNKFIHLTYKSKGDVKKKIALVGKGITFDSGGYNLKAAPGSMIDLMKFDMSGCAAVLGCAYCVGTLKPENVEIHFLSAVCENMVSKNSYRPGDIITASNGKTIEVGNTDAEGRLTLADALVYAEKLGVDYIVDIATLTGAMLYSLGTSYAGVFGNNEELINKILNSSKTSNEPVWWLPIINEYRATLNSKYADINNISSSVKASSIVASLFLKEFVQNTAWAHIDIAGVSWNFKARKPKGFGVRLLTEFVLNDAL

[7] = biological target: G-protein coupled receptor 183 (Homo sapiens, UniProt P32249); assay: SAR confirmation of small molecule antagonists of the EBI2 receptor via a luminescent beta-arrestin assa.; format: functional
[8] = P. falciparum ATP4 D1247Y mutant growth inhibitors, dose response, NITD609-resistant line, SYBR Green, dry powder (AID 1159571); format: functional, cell-based;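 note: parasites synchronized at ring stage by sorbitol before testing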
[9] = HepG2 cell cytotoxicity, dose response, cytotoxicity control, plate reader, dry powder samples (AID 1159569); format: functional, cell-based;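 note: inhibitor potency with signal falling toward the positive control level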
[10] = P. falciparum 3D7-ScDHODH growth inhibitors, dose response, SYBR Green, dry powder samples (AID 1159570); format: functional, cell-based;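 note: parasite growth measured after 72 hours of compound exposure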
[11] = P. falciparum Dd2 growth inhibitors, dose response, SYBR Green, dry powder samples (AID 1159566); format: functional, cell-based;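 note: potency for growth inhibition with lower SYBR green DNA signal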

Chain of G-protein coupled receptor 183 (P32249 whole entry): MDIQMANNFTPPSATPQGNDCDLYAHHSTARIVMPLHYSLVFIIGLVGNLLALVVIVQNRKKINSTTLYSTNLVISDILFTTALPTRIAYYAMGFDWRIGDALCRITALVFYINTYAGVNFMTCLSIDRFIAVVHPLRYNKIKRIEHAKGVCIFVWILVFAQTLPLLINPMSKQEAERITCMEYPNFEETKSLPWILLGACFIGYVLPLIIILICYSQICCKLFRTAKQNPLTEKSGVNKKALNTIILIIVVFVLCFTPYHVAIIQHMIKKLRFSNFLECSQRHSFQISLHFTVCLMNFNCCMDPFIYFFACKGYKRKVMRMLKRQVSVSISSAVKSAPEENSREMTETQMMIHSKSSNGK
Chain of Bifunctional protein GlmU (P9WMN3 whole entry): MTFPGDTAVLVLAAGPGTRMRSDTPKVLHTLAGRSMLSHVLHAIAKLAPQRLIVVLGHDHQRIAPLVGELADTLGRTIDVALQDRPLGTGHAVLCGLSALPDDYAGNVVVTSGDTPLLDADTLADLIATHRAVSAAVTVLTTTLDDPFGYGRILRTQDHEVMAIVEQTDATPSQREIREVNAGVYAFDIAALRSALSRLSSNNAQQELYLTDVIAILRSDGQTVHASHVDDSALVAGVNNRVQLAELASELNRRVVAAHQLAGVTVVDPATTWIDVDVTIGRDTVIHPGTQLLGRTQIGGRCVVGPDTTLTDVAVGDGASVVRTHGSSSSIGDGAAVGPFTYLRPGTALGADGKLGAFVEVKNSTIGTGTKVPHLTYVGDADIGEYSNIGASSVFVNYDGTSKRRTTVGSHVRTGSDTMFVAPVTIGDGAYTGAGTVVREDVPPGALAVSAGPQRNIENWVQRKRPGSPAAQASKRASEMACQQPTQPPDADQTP

O=C(Nc1ccc(Cl)c(Cl)c1)N[C@@H]1CC[C@@H](CCn2cc(C3CCCCC3)nn2)O[C@@H]1CO
AC50 [1]: 17.8 µM (active)
AC50 [2]: 12.4 µM (active)
AC50 [3]: 57.9 µM (active)
AC50 [4]: 0.538 µM (active)
AC50 [5]: 46.9 µM (active)

O=C(Nc1ccc(Oc2ccc(C(=O)O)c(C(=O)O)c2)cc1)c1cccs1
IC50 [6]: 97.3 µM (active)
IC50 (Leucine aminopeptidase): 30.7 µM (active)

O=C(CCCc1ccc(Br)cc1)N1CCN(C(=O)c2ccc(Cl)cc2)CC1
IC50 [7]: > 1 µM (inactive)

OC[C@@H]1[C@@H](c2ccccc2)C2(CN(CC3CC3)C2)N1Cc1ccc(F)cc1
AC50 [8]: 1.52 µM (active)
AC50 [9]: 43.6 µM (active)
AC50 [2]: 0.919 µM (active)
AC50 [10]: 1.98 µM (active)
AC50 [11]: 1.09 µM (active)

O=C(/C=C/c1ccc(Br)cc1)N1CCN(Cc2ccccc2F)CC1
IC50 [7]: 0.0287 µM (active)
